Results taken from patent US20020193343A1, “Controlled enzymatic degradation of guar galactomannan solutions using enzymatic inhibition” (priority 2000, published 2002).

Experiments:
[1] = test system: Aspergillus niger β-mannanase; assay: Enzyme degradation assay of guar solutions (viscosity reduction, steady shear rheology); format: biochemical; details: for inhibition of β-mannanase by TRIS variants (zero shear viscosity): 25 mM
Experimental: Enzyme Degradation Assay: Enzyme degradation was conducted with 7 mg/ml purified guar solutions containing 0.2 mg/ml sodium azide and 20 mM of the appropriate buffer. Guar solutions (19 ml) and enzyme stock solution were separately pre-incubated at 25° C. for 15 minutes, followed by the addition of 78.9 μl of enzyme stock solution to 19 ml of guar solution. The final enzyme concentration was 8.3×10^−4 U/ml. The mixture was shaken at an agitation speed of 2 at 25° C. for 1 hour in a New Brunswick gyrotory water bath shaker (Model G76). The enzyme was denatured after 1 hour by placing the enzyme/guar solution in a 90° C. water bath for 10 minutes. Enzyme hydrolysis was conducted at different pH's using various buffers: sodium acetate was used for pH 4 and 5, MES was used for pH 6, sodium phosphate was used for pH 7 and pH 8 and glycine was used for pH 9. If inhibitor, inhibitor variant or NaCl was used, the appropriate amount was added to the guar solution and the pH was readjusted to the appropriate value. […] After incubating each of these solutions at 25° C. for 30 minutes, 78.9 μl of this solution was added to 19 ml of guar solution and the enzymatic degradation of guar was analyzed following known techniques.
Rheology: Steady shear experiments were conducted using a Rheometrics Dynamic Stress Rheometer (DSR II) and a couette fixture with a cup diameter of 31.9 mm, a bob diameter of 29.5 mm and a bob length of 44.25 mm. All experiments were performed at 25° C. and all reported data were reproducible within 10%. Steady shear experiments were performed to determine viscosity, η, as a function of shear rate. […] To analyze a portion of the data, a normalized relative activity was defined using the viscosity data. At a particular pH, the viscosity difference (Δη) between the initial zero shear viscosity and the zero shear viscosity after 1 hour of degradation was used as the reference Δη. […] In summary, [formula]

[2] = from 25 degrees C. to 60 degrees C.
Description: The relative amounts of the two forms are dependent on the pH of the solution and can be predicted by the Henderson-Hasselbach equation.

Q: For `O=C(O)CNC(CO)(CO)CO` [N-tris (hydroxymethyl) methylglycine, reference compound], which “inhibition of β-mannanase by TRIS variants (zero shear viscosity)” value ([1]; pH 9, 1 hour) is on record?
A: Its value is “no inhibition”.

Q: Which “effect of added salt on viscosity reduction by the enzyme” value ([1]; pH 4 and pH 9, same quantities as with TRIS hydrochloride) does the source give for `[Cl-].[Na+]` [NaCl] here?
A: Its value is “did not alter the viscosity reduction”.

Q: With `NC(CO)(CO)CO` [TRIS, 2-amino-2-hydroxymethyl-1,3-propanediol] as the molecule, how does the “inhibition of β-mannanase degradation of guar” value ([1]; 1 mM TRIS, pH 9, 1 hour) read?
A: The value was “only minimal inhibition”.

Q: What about the “viscosity reduction of guar by β-mannanase” value ([1]; 1 mM TRIS, pH 9, 5 hours) of the same molecule?
A: Its value is “impeded viscosity reduction considerably”.

Q: What about the “inhibition of β-mannanase degradation of guar” value ([1]; 5 mM TRIS, pH 9, 1 hour) of the same molecule?
A: Its value is “inhibited the degradation considerably”.

Q: And the “viscosity reduction of guar by β-mannanase” value ([1]; 10 mM TRIS, pH 9, 5 hours)?
A: The value was “minimal viscosity reduction”.

Q: And the “viscosity reduction of guar by β-mannanase” value ([1]; 10 mM and higher TRIS, pH 9, 1 hour)?
A: Its value is “no viscosity reduction”.

Q: And the “inhibition of enzyme degradation” value ([1]; 25mM TRIS, pH 9, enzyme 8.3×10^−4 U/ml)?
A: Its value is “inhibits enzyme degradation for an extended period of time”.

Q: What about the “viscosity reduction of guar by β-mannanase” value ([1]; 25 mM and higher TRIS, pH 9, 5 hours) of the same molecule?
A: Its value is “no viscosity reduction”.

Q: What about the “inhibition after mixing TRIS with the enzyme solution before addition to guar” value ([1]; TRIS to enzyme molar ratio 1:1 and 5:1, 30 minutes pre-incubation) of the same molecule?
A: Its value is “neither of these solutions showed any inhibition”.

Q: What about the type of inhibition ([1]; degradation triggered after 5 hours by pH shift) of the same molecule?
A: Its type of inhibition is “reversible inhibitor”.

Q: What about the “effect on enzymatic hydrolysis by β-mannanase” value ([1]; pH 4, 1 hour, 0-25 mM TRIS) of the same molecule?
A: Its value is “did not impede enzymatic hydrolysis”.

Q: And the “inhibition of β-mannanase at pH 7 compared with pH 9” value ([1]; pH 7, low concentrations of TRIS, 1 hour)?
A: Its value is “better inhibitor of the enzyme than at pH 9”.

Q: And the “viscosity reduction of guar by β-mannanase with TRIS as buffer” value ([1]; pH 8, 1 hour, 7 mg/ml guar, 8.3×10^−4 U/ml enzyme)?
A: Its value is “negligible reduction in viscosity”.

Q: What about the “pH drop on temperature increase” value [2] of the same molecule?
A: Its value is 0.98.

Q: Which “inhibition of β-mannanase by TRIS variants (zero shear viscosity)” value ([1]; pH 9, 1 hour) does the source give for `O=[N+]([O-])C(CO)(CO)CO` [Tris (hydroxymethyl) nitromethane, reference compound] here?
A: Its value is “no inhibition”.

Q: For “Tris(hydroxymethyl)aminomethane [base form of TRIS]”, which “inhibition of β-mannanase, base form compared with hydrochloride form” value ([1]; base form of TRIS (without any salts)) is on record?
A: The value was “exactly the same as that of TRIS in its hydrochloride form”.
